Our source for the Bliss interaction score values is the supplement of paper PMC10627819.

Assay in all cases: Bliss interaction score (quartile over a dose matrix) (fitness difference); higher = more antagonism (negative = synergy)
Assay [1] concerns S. pneumoniae D39V. The essentials: (§1)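 The Bliss score is observed minus expected fitness, where expected fitness is the product of the single-drug fitness values inferred from the combination data. Fitness is the OD595 at the onset of stationary phase over the plate's robust no-drug mean, capped at 1. Scores are summarised by quartiles over technical, biological and donor/recipient replicates.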

The test system of assay [2] is S. aureus Newman. In short, it runs like this: as §1
Assay [3] concerns S. aureus DSM 20231. The essentials:
as §1

Assay [4] relates to B. subtilis 168. The essentials: as §1
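Also: first quartile when negative (synergy) and third quartile when positive (antagonism).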

For the compound `C[C@H]1c2cccc(O)c2C(=O)C2=C(O)[C@]3(O)C(=O)C(C(N)=O)=C(O)[C@@H](N(C)C)[C@@H]3[C@@H](O)[C@@H]21` [Doxycycline] + CCCCCCCCCC(=O)N[C@@H]1[C@H]([C@@H]([C@H](O[C@H]1OC2=C3C=C4C=C2OC5=C(C=C(C=C5)[C@H]([C@H]6C(=O)N[C@@H](C7=C(C(=CC(=C7)O)OC8[C@H]([C@H]([C@@H]([C@H](O8)CO)O)O)O)C9=C(C=CC(=C9)[C@H](C(=O)N6)NC(=O)[C@@H]4NC(=O)[C@@H]1C2=CC(=CC(=C2)OC2=C(C=CC(=C2)[C@H](C(=O)N[C@H](CC2=CC(=C(O3)C=C2)Cl)C(=O)N1)N)O)O)O)C(=O)O)O[C@H]1[C@@H]([C@H]([C@@H]([C@H](O1)CO)O)O)NC(=O)C)Cl)CO)O)O [Teicoplanin], the Bliss interaction score in assay [1] (main component drawn) is -0.0489; in assay [2] (main component drawn), 0.0478; in assay [3] (main component drawn) it was 0.118; in assay [4] (main component drawn) it was 0.0442.

`CN(C)[C@@H]1C(O)=C(C(N)=O)C(=O)[C@@]2(O)C(O)=C3C(=O)c4c(O)ccc(Cl)c4[C@@](C)(O)[C@H]3C[C@@H]12` [Clortetracycline] + CCCCCCCCCC(=O)N[C@@H]1[C@H]([C@@H]([C@H](O[C@H]1OC2=C3C=C4C=C2OC5=C(C=C(C=C5)[C@H]([C@H]6C(=O)N[C@@H](C7=C(C(=CC(=C7)O)OC8[C@H]([C@H]([C@@H]([C@H](O8)CO)O)O)O)C9=C(C=CC(=C9)[C@H](C(=O)N6)NC(=O)[C@@H]4NC(=O)[C@@H]1C2=CC(=CC(=C2)OC2=C(C=CC(=C2)[C@H](C(=O)N[C@H](CC2=CC(=C(O3)C=C2)Cl)C(=O)N1)N)O)O)O)C(=O)O)O[C@H]1[C@@H]([C@H]([C@@H]([C@H](O1)CO)O)O)NC(=O)C)Cl)CO)O)O [Teicoplanin]: the Bliss interaction score in assay [1] (main component drawn) was -0.0412; in assay [2] (main component drawn), 0.0527; in assay [3] (main component drawn) it was 0.111; in assay [4] (main component drawn), 0.0958.

With `CC(=O)Oc1ccccc1C(=O)O` [Acetylsalicylicacid] + C[C@H]1COc2c(N3CCN(C)CC3)c(F)cc3c(=O)c(C(=O)O)cn1c23 [Levofloxacin], the Bliss interaction score in assay [1] was 0.142; in assay [2] it was 0.12; in assay [3], 0.0854; in assay [4] it was 0.12.

As to `CC(=O)Oc1ccccc1C(=O)O` [Acetylsalicylicacid] + C1=CC(=CC(=C1)Cl)NN=C(C#N)C#N [CCCP], the Bliss interaction score was -0.161 in assay [1], -0.0296 in assay [2], -0.138 in assay [3] and -0.0436 in assay [4].

Regarding `C[C@H]1c2cccc(O)c2C(=O)C2=C(O)[C@]3(O)C(=O)C(C(N)=O)=C(O)[C@@H](N(C)C)[C@@H]3[C@@H](O)[C@@H]21` [Doxycycline] + CC[C@H]1OC(=O)[C@H](C)C(=O)[C@H](C)[C@@H](O[C@@H]2O[C@H](C)C[C@H](N(C)C)[C@H]2O)[C@](C)(OC)C[C@@H](C)C(=O)[C@H](C)[C@H]2N(CCCCn3cnc(-c4cccnc4)c3)C(=O)O[C@]12C [Telithromycin], the Bliss interaction score is -0.261 in assay [1], -0.0224 in assay [2], -0.0892 in assay [3] and -0.326 in assay [4].

For the compound `N#CC(C#N)=NNc1cccc(Cl)c1` [CCCP] + C[C@H]1COc2c(N3CCN(C)CC3)c(F)cc3c(=O)c(C(=O)O)cn1c23 [Levofloxacin], the Bliss interaction score was 0.0909 in assay [1], 0.0426 in assay [2], -0.0231 in assay [3] and 0.0457 in assay [4].

For `CO/N=C(\C(=O)N[C@@H]1C(=O)N2C(C(=O)O)=C(COC(N)=O)CS[C@H]12)c1ccco1` [Cefuroxime] + O=C(O)c1cn(C2CC2)c2cc(N3CCNCC3)c(F)cc2c1=O [Ciprofloxacin], the Bliss interaction score was -0.0381 in assay [1], -0.0563 in assay [2], -0.31 in assay [3] and -0.171 in assay [4].

Consider `N#CC(C#N)=NNc1cccc(Cl)c1` [CCCP] + CCN(CC)CCOC(=O)c1ccc(N)cc1 [Procaine], for which the Bliss interaction score in assay [1] is 0.0668; in assay [2], -0.0249; in assay [3], -0.0522; in assay [4], 0.0328.

For `CN(C)[C@@H]1C(O)=C(C(N)=O)C(=O)[C@@]2(O)C(O)=C3C(=O)c4c(O)ccc(Cl)c4[C@@](C)(O)[C@H]3C[C@@H]12` [Clortetracycline] + CN[C@@H]1[C@H](O)[C@H](NC)[C@H]2O[C@@]3(O)C(=O)C[C@@H](C)O[C@H]3O[C@@H]2[C@H]1O [Spectinomycin], the Bliss interaction score in assay [1] was 0.0439; in assay [2], -0.0716; in assay [3], -0.0598; in assay [4], -0.0478.

Take `CC(=O)Oc1ccccc1C(=O)O` [Acetylsalicylicacid] + C[C@@H]1O[C@@H]1P(=O)(O)O [Fosfomycin]: the Bliss interaction score in assay [1] is 0.119; in assay [2], -0.0772; in assay [3], 0.0721; in assay [4] it was -0.291.

With `O=C(O)c1cn(C2CC2)c2cc(N3CCNCC3)c(F)cc2c1=O` [Ciprofloxacin] + Oc1cc(Cl)ccc1Oc1ccc(Cl)cc1Cl [Triclosan], the Bliss interaction score is 0.0508 in assay [1], -0.0217 in assay [2], 0.0355 in assay [3] and -0.0391 in assay [4].

Turning to `CC1(C)S[C@@H]2[C@H](NC(=O)Cc3ccccc3)C(=O)N2[C@H]1C(=O)O` [PenicillinG] + Cc1cc(NS(=O)(=O)c2ccc(N)cc2)no1 [Sulfamethoxazol], the Bliss interaction score in assay [1] was -0.0954; in assay [2], 0.0475; in assay [3], -0.0626; in assay [4], 0.0445.

Turning to `N#CC(C#N)=NNc1cccc(Cl)c1` [CCCP] + CN[C@@H]1[C@H](O[C@H]2[C@H](O[C@H]3[C@H](O)[C@@H](O)[C@H](N=C(N)N)[C@@H](O)[C@@H]3N=C(N)N)O[C@@H](C)[C@]2(O)C=O)O[C@@H](CO)[C@H](O)[C@H]1O [Streptomycin], the Bliss interaction score was determined as 0.0786 in assay [1], 0.0563 in assay [2], 0.0501 in assay [3] and 0.48 in assay [4].

For `CN(C)[C@@H]1C(O)=C(C(N)=O)C(=O)[C@@]2(O)C(O)=C3C(=O)c4c(O)ccc(Cl)c4[C@@](C)(O)[C@H]3C[C@@H]12` [Clortetracycline] + CN[C@H](CC(C)C)C(=O)N[C@H]1C(=O)N[C@@H](CC(N)=O)C(=O)N[C@H]2C(=O)N[C@H]3C(=O)N[C@H](C(=O)N[C@H](C(=O)O)c4cc(O)cc(O)c4-c4cc3ccc4O)[C@H](O[C@H]3C[C@](C)(N)[C@@H](O)[C@H](C)O3)c3ccc(c(Cl)c3)Oc3cc2cc(c3O[C@@H]2O[C@H](CO)[C@@H](O)[C@H](O)[C@H]2O[C@H]2C[C@](C)(NCc3ccc(-c4ccc(Cl)cc4)cc3)[C@@H](O)[C@H](C)O2)Oc2ccc(cc2Cl)[C@H]1O [Oritavancin], the Bliss interaction score in assay [1] is 0.073; in assay [2], 0.0708; in assay [3], -0.0292; in assay [4] it was -0.0243.

Turning to `CN(C)[C@@H]1C(O)=C(C(N)=O)C(=O)[C@@]2(O)C(O)=C3C(=O)c4c(O)ccc(Cl)c4[C@@](C)(O)[C@H]3C[C@@H]12` [Clortetracycline] + CN1C2=CC=CC=C2N=C3C1=CC=CC3=O [Pyocyanin], the Bliss interaction score in assay [1] was -0.0238; in assay [2], -0.0515; in assay [3], 0.0397; in assay [4] it was 0.0851.
